Where a name gives a salt, the structure may show the parent alone. Read-outs that look alike come from different tables or passages of the source.
Assays:
Nrf2-ARE activity = type: cell-based
[1] = tested on: Nrf2-ARE activity in HepG2 cells; type: cell-based, human; settings: for ARE-luciferase activity with Nrf2 activator: HepG2 cells treated with both drug and iAs3+ (FIG. 2A, FIG. 3); for inhibitory effect on ARE-luciferase activity: HepG2 cells, basal conditions (FIG. 2A, FIG. 3)
[2] = tested on: Nrf2-ARE-dependent gene expression (HO1, GCLM, SRX); settings: THP-1 cells, concentration-dependent
[3] = tested on: Nrf2-ARE-dependent gene expression (Ho1); assay: RT-qPCR of ARE-dependent gene in HepG2 cells; settings: concentration-dependent, basal (FIG. 2B)
[4] = tested on: Nrf2-ARE-dependent gene expression (Gclc, Nqo1, Ho1); assay: RT-qPCR of ARE-dependent genes in 3T3-L1 preadipocytes; settings: 10 mM
[5] = tested on: Nrf2-ARE activity in 3T3-L1 preadipocytes; type: cell-based, mouse
[6] = tested on: Nrf2-ARE activity in HaCaT cells; type: cell-based, human
[7] = iAs3+-treated or tBHQ-treated conditions

Row | SMILES | inhibitory effect on ARE-luciferase activity (Nrf2-ARE activity; basal conditions) | inhibitory effect on ARE-luciferase activity (Nrf2-ARE activity; [7]) | also measured
1 | NNC(=O)c1ccco1 [2-Furoic hydrazide] | concentration-dependent inhibitory effect | concentration-dependent inhibitory effect | 
2 | Nc1cnccn1 [Aminopyrazine] | concentration-dependent inhibitory effect | concentration-dependent inhibitory effect | 
3 | CC[C@@H](CO)NCCN[C@@H](CC)CO [Ethambutol dihydrochloride] | concentration-dependent inhibitory effect |  | 
4 | CCc1cc(C(N)=S)ccn1 [Ethionamide] |  |  | ARE-luciferase activity with Nrf2 activator [1]: substantial ARE-luciferase activity; inhibitory effect on ARE-luciferase activity [1]: concentration-dependent inhibitory effect; gene expression (mRNA) of Heme oxygenase (HO1) ([2]; basal (FIG. 4A)): suppresses; gene expression (mRNA) of GCLM ([2]; basal (FIG. 4B)): suppresses; gene expression (mRNA) of sulfiredoxin (SRX) ([2]; basal (FIG. 4C)): suppresses
5 | NNC(=O)c1ccncc1 [Isoniazid] |  |  | gene expression of Heme oxygenase (Ho1) [3]: suppresses; ARE-luciferase activity with Nrf2 activator [1]: substantial ARE-luciferase activity; inhibitory effect on ARE-luciferase activity [1]: concentration-dependent inhibitory effect; gene expression of glutamate-cysteine ligase catalytic subunit (Gclc) ([4]; basal (FIG. 1B)): suppresses; gene expression of NAD(P)H dehydrogenase [quinone] 1 (Ngo1) ([4]; basal (FIG. 1C)): suppresses; gene expression of Heme oxygenase (Ho1) ([4]; basal (FIG. 1D)): suppresses; ARE-luciferase activity with Nrf2 activator ([5]; 3T3-L1 cells treated with both drug and iAs3+ (FIG. 1A)): substantial ARE-luciferase activity; inhibitory effect on ARE-luciferase activity ([5]; 3T3-L1 cells, basal conditions, 1 mM to 50 mM (FIG. 1A)): concentration-dependent inhibitory effect; Nrf2-ARE-inhibitory effect (ARE-luciferase) [6]: Nrf2-ARE-inhibitory effect of isoniazid was also observed
6 | NNC(=O)Cc1ccccc1 [Phenylacetic hydrazide] | concentration-dependent inhibitory effect | concentration-dependent inhibitory effect | 
7 | NNc1ccccc1 [Phenylhydrazine] | concentration-dependent inhibitory effect | concentration-dependent inhibitory effect | 
8 | NC(=O)c1cnccn1 [Pyrazinecarboxamide] | concentration-dependent inhibitory effect | concentration-dependent inhibitory effect | 
9 | C[C@@H]1CN(c2c(F)c(N)c3c(=O)c(C(=O)O)cn(C4CC4)c3c2F)C[C@H](C)N1 [Sparfloxacin] | concentration-dependent inhibitory effect |  | 
10 | Cc1ccc(C(=O)NN)cc1 [p-Toluic hydrazide] | concentration-dependent inhibitory effect | concentration-dependent inhibitory effect | 

Reference: US20160263108A1, “NRF2 INHIBITORS AND COMPOSITIONS FOR TREATING MYCOBACTERIAL INFECTIONS” (THE HAMNER INSTITUTES, priority 2013, published 2016)
